The target of assay [1] is T1, rCA4 (CA4), alpha-class carbonic anhydrase of Paracoccidioides (Paracoccidioides brasiliensis, UniProt B1PIT4).
T1 construct: 32 kDa
T1 sequence (B1PIT4 1-301): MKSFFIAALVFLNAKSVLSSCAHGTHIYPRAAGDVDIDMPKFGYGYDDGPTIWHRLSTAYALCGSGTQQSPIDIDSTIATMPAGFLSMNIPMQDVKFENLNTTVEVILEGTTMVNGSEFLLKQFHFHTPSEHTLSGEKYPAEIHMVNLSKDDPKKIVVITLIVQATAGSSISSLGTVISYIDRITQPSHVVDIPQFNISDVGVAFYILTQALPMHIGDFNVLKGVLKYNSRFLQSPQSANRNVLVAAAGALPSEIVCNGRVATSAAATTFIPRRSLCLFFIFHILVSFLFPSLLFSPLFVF
Nature of the assay: CO2 hydration, electrometric (Wilbur-Anderson). It counts as biochemical. The note with it: read-out: CA4- Residual Activity (%). The source says:
CO2 hydration, electrometric (Wilbur-Anderson) on rCA4 (CA4), alpha-class carbonic anhydrase of Paracoccidioides

In assay [2] the target is T2, rCA1 (CA1), beta-class carbonic anhydrase of Paracoccidioides (Paracoccidioides lutzii, UniProt C1H4M3).
T2 construct: gene PAAG_05716; complete cDNA, 282 residues, GST fusion (pGEX-4T-3) from E. coli, GST cut by thrombin; 33 kDa
T2 sequence (C1H4M3 1-282): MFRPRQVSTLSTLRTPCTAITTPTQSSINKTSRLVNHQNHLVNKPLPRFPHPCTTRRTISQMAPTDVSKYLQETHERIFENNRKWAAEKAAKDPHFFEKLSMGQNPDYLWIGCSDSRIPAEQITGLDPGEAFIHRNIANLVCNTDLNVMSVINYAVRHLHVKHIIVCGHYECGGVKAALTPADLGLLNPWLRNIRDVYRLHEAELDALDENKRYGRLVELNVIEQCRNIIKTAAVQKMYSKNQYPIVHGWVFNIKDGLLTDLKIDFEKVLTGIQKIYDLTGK
The assay is described as follows: CO2 hydration, electrometric (Wilbur-Anderson). It counts as biochemical. The note with it: read-out: CA1- Residual Activity (%). An excerpt:
CO2 hydration, electrometric (Wilbur-Anderson) on rCA1 (CA1), beta-class carbonic anhydrase of Paracoccidioides

As for `N=C(N)NCCC[C@H](N)C(=O)O` [L-Arg], the remaining activity at 25 µM in assay [1] came to 132%; in assay [2], 130%.

For `N[C@@H](Cc1c[nH]c2ccccc12)C(=O)O` [L-Trp], the remaining activity at 25 µM in assay [1] was found to be 158%; in assay [2] it was 162%.

Consider `NCCCC[C@H](N)C(=O)O` [L-Lys], for which the remaining activity at 25 µM in assay [1] was determined as 140%; in assay [2] it was 138%.

With `N[C@@H](Cc1cnc[nH]1)C(=O)O` [L-His], the results for the remaining activity at 25 µM in assay [1] and in assay [2] were 152% and 142%, respectively.

For the origin of these results see paper PMC5004831, “Molecular and biochemical characterization of carbonic anhydrases of Paracoccidioides” (Genetics and Molecular Biology, 2016).
